Experimental data reported in patent publication US10954214B2 (Janssen Pharmaceutica NV, priority 2016, dated 2021).

Columns and labels:
[1] = system: IL6 secretion by OCI-LY3 ABC-DLBCL cells; assay: Human IL6 Mesoscale assay (OCI-LY3); format: cell-based; conditions: Homo sapiens, 24 h
Procedure, shortened: (§1)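 Compounds tested from 15 μM to 58.6 nM (twofold, 9 concentrations) on 100,000 cells per well over 24 h at 37° C, without beta-mercaptoethanol. Secreted cytokine in supernatant detected by MSD electrochemiluminescence; scaling used DMSO as maximum and RN486 as full inhibition.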

[2] = system: IL10 secretion by OCI-LY3 ABC-DLBCL cells; assay: Human IL10 Mesoscale assay (OCI-LY3); format: cell-based; conditions: Homo sapiens, 24 h
Procedure, shortened: as §1

[3] = molecular target: full-length MALT1 protein (Strep-MALT1(1-824)-His) (Homo sapiens (Human), UniProt Q9UDY8); assay: MALT1 Biochemical Protease Assay (Ac-LRSR-AMC substrate); conditions: 10 nM FL MALT1, 200 μM Ac-LRSR-AMC, 4 h at RT; read-out: MALT1_Biochemical activity (Ac-LRSR-amc) IC50
full-length MALT1 protein (Strep-MALT1(1-824)-His), sequence (Q9UDY8 whole entry): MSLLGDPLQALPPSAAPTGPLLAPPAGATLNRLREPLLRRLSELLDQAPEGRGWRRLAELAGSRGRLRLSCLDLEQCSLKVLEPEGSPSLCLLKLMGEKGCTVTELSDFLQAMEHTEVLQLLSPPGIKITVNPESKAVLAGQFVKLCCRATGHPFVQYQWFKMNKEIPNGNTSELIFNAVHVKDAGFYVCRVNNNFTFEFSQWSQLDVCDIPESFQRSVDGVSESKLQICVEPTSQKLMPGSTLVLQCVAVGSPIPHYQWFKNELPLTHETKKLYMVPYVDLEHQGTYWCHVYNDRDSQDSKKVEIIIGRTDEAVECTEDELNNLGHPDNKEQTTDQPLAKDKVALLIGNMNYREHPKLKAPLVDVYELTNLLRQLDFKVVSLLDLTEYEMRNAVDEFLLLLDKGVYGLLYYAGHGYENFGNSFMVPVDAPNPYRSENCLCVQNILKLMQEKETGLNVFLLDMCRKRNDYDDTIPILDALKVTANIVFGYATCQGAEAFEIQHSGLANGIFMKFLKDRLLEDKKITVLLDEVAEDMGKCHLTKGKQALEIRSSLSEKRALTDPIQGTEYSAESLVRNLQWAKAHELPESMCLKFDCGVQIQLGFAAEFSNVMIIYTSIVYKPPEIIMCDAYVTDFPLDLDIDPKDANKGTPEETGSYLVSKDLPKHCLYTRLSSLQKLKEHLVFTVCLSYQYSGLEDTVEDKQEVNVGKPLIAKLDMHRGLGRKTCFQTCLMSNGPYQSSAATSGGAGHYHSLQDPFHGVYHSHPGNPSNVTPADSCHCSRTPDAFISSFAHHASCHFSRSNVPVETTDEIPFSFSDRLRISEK
Procedure, shortened: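 Full-length MALT1 pre-incubated with compounds (30 μM to 0.5 nM, 11 threefold steps) for 50 min at RT. After Ac-LRSR-AMC was added, the reaction ran 4 h at RT and AMC fluorescence was read. IC50 and Hill slope from curve fitting against no-enzyme and no-compound controls.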

Structure (SMILES) | IC50 [1] [nM] | IC50 [2] [nM] | IC50 [3] [nM]
COCCOc1ncc(C(F)(F)F)cc1NC(=O)c1cnn(-c2cccc3c(=O)[nH]ccc23)c1C(F)(F)F [Cpd 357, N-(2-(2-methoxyethoxy)-5-(trifluoromethyl)pyridin-3-yl)-1-(1-oxo-1,2-dihydroisoquinolin-5-yl)-5-(trifluoromethyl)-1H-pyrazole-4-carboxamide] | 15 | 15 | 977
Cc1nc(-n2nccn2)c(Cl)cc1NC(=O)c1cnn(-c2cc(=O)[nH]c3ccccc23)c1C(F)(F)F [Cpd 358, N-(5-chloro-2-methyl-6-(2H-1,2,3-triazol-2-yl)pyridin-3-yl)-1-(2-oxo-1,2-dihydroquinolin-4-yl)-5-(trifluoromethyl)-1H-pyrazole-4-carboxamide] | 123 | 126 | 19
Cc1cnn(-c2nc(C)c(NC(=O)c3cnn(-c4cccc5c(=O)[nH]ccc45)c3C(F)(F)F)cc2Cl)n1 [Cpd 359, N-(5-chloro-2-methyl-6-(4-methyl-2H-1,2,3-triazol-2-yl)pyridin-3-yl)-1-(1-oxo-1,2-dihydroisoquinolin-5-yl)-5-(trifluoromethyl)-1H-pyrazole-4-carboxamide] | 98 | 91 | 28
COc1cc(NC(=O)c2cnn(-c3cccc4c(=O)[nH]ccc34)c2C(F)(F)F)ccn1 [Cpd 360, N-(2-methoxypyridin-4-yl)-1-(1-oxo-1,2-dihydroisoquinolin-5-yl)-5-(trifluoromethyl)-1H-pyrazole-4-carboxamide] | 20 | 20 | 2690
O=C(Nc1ccnc(C(F)(F)F)c1)c1cnn(-c2cncc3sccc23)c1C(F)(F)F [Cpd 364, 1-(thieno[2,3-c]pyridin-4-yl)-5-(trifluoromethyl)-N-(2-(trifluoromethyl)pyridin-4-yl)-1H-pyrazole-4-carboxamide] | 28 | 31 | 98
O=C(Nc1cnc(-n2nccn2)c(Cl)c1)c1cnn(-c2cnc(C3CCCO3)c3ccccc23)c1C(F)(F)F (stereo not drawn) [Cpd 365, N-(5-chloro-6-(2H-1,2,3-triazol-2-yl)pyridin-3-yl)-1-(1-(tetrahydrofuran-2-yl)isoquinolin-4-yl)-5-(trifluoromethyl)-1H-pyrazole-4-carboxamide] | 25 | 24 | 60
O=C(Nc1cnc(-n2nccn2)c(Cl)c1)c1cnn(-c2cnc(C3CCCO3)c3cccc(C4CCCO4)c23)c1C(F)(F)F (stereo not drawn) [Cpd 366, 1-(1,5-bis(tetrahydrofuran-2-yl)isoquinolin-4-yl)-N-(5-chloro-6-(2H-1,2,3-triazol-2-yl)pyridin-3-yl)-5-(trifluoromethyl)-1H-pyrazole-4-carboxamide] | 107 | 89 | 8910
O=C(Nc1cnc(-n2nccn2)c(Cl)c1)c1cnn(-c2cnc(C3COCCO3)c3ccccc23)c1C(F)(F)F (stereo not drawn) [Cpd 367, 1-(1-(1,4-dioxan-2-yl)isoquinolin-4-yl)-N-(5-chloro-6-(2H-1,2,3-triazol-2-yl)pyridin-3-yl)-5-(trifluoromethyl)-1H-pyrazole-4-carboxamide] | 115 | 98 | 110
CCOC(C)c1ncc(-n2ncc(C(=O)Nc3cnc(-n4nccn4)c(Cl)c3)c2C(F)(F)F)c2ccccc12 (stereo not drawn) [Cpd 368, N-(5-chloro-6-(2H-1,2,3-triazol-2-yl)pyridin-3-yl)-1-(1-(1-ethoxyethyl)isoquinolin-4-yl)-5-(trifluoromethyl)-1H-pyrazole-4-carboxamide] | 170 | 79 | 331
O=C1CCC(c2ncc(-n3ncc(C(=O)Nc4cnc(-n5nccn5)c(Cl)c4)c3C(F)(F)F)c3ccccc23)N1 (stereo not drawn) [Cpd 369, N-(5-chloro-6-(2H-1,2,3-triazol-2-yl)pyridin-3-yl)-1-(1-(5-oxopyrrolidin-2-yl)isoquinolin-4-yl)-5-(trifluoromethyl)-1H-pyrazole-4-carboxamide] | 34 | 29 | 155
O=C(Nc1cnc(-n2nccn2)c(Cl)c1)c1cnn(-c2cccc3nc(C4CCCO4)ccc23)c1C(F)(F)F (stereo not drawn) [Cpd 372, N-(5-chloro-6-(2H-1,2,3-triazol-2-yl)pyridin-3-yl)-1-(2-(tetrahydrofuran-2-yl)quinolin-5-yl)-5-(trifluoromethyl)-1H-pyrazole-4-carboxamide] | 12 | 12 | 2000
CN(C=O)Cc1ncc(-n2ncc(C(=O)Nc3cnc(-n4nccn4)c(Cl)c3)c2C(F)(F)F)c2ccccc12 [Cpd 373, N-(5-chloro-6-(2H-1,2,3-triazol-2-yl)pyridin-3-yl)-1-(1-((N-methylformamido)methyl)isoquinolin-4-yl)-5-(trifluoromethyl)-1H-pyrazole-4-carboxamide] | 17 | 12 | 138
CC(O)c1cc(-n2ncc(C(=O)Nc3cnc(-n4nccn4)c(Cl)c3)c2C(F)(F)F)c2ccccc2n1 (stereo not drawn) [Cpd 374, N-(5-chloro-6-(2H-1,2,3-triazol-2-yl)pyridin-3-yl)-1-(2-(1-hydroxyethyl)quinolin-4-yl)-5-(trifluoromethyl)-1H-pyrazole-4-carboxamide] | 72 | 40 | 87
Cc1ncc(NC(=O)c2cnn(-c3cnc(N)c4ccccc34)c2C(F)(F)F)cc1C(F)(F)F [Cpd 377, 1-(1-aminoisoquinolin-4-yl)-N-(6-methyl-5-(trifluoromethyl)pyridin-3-yl)-5-(trifluoromethyl)-1H-pyrazole-4-carboxamide] | 52 | 56 | 457
O=C(Nc1cnc(-n2nccn2)c(Cl)c1)c1cnn(-c2cnc(C3CCCN3)c3ccccc23)c1C(F)(F)F (stereo not drawn) [Cpd 380, N-(5-chloro-6-(2H-1,2,3-triazol-2-yl)pyridin-3-yl)-1-(1-(pyrrolidin-2-yl)isoquinolin-4-yl)-5-(trifluoromethyl)-1H-pyrazole-4-carboxamide] | 46 | 24 | 447
O=C(Nc1cnc(-n2nccn2)c(Cl)c1)c1cnn(-c2cc(C3CCN3)nc3ccccc23)c1C(F)(F)F (stereo not drawn) [Cpd 382, 1-(2-(azetidin-2-yl)quinolin-4-yl)-N-(5-chloro-6-(2H-1,2,3-triazol-2-yl)pyridin-3-yl)-5-(trifluoromethyl)-1H-pyrazole-4-carboxamide] | 29 | 26 | 331
CNC(=O)c1ncc(-n2ncc(C(=O)Nc3cnc(-n4nccn4)c(Cl)c3)c2C(F)(F)F)c2ccccc12 [Cpd 390, 4-(4-((5-chloro-6-(2H-1,2,3-triazol-2-yl)pyridin-3-yl)carbamoyl)-5-(trifluoromethyl)-1H-pyrazol-1-yl)-N-methylisoquinoline-1-carboxamide] | 98 | 83 | 102
O=C(Nc1cnc(-n2nccn2)c(Cl)c1)c1cnn(-c2cnc(C(F)F)c3ccccc23)c1C(F)(F)F [Cpd 394, N-(5-chloro-6-(2H-1,2,3-triazol-2-yl)pyridin-3-yl)-1-(1-(difluoromethyl)isoquinolin-4-yl)-5-(trifluoromethyl)-1H-pyrazole-4-carboxamide] | 50 | 36 | 95
